Columns and labels:
Assay in all cases: Bliss interaction score (quartile over a dose matrix) (fitness difference); higher = more antagonism (negative = synergy)
S. aureus Newman = tested on: S. aureus Newman
Summary of the method: (§1)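 The Bliss score is observed minus expected fitness under the product model, reported as quartiles over technical, biological and donor/recipient replicates. Fitness is the OD595 at entry into stationary phase divided by the plate's robust no-drug mean and capped at 1. Single-drug fitness was inferred from combination data.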

S. aureus DSM 20231 = tested on: S. aureus DSM 20231
Summary of the method: as §1

B. subtilis 168 = tested on: B. subtilis 168
Summary of the method: as §1

S. pneumoniae D39V = tested on: S. pneumoniae D39V
Summary of the method: as §1
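Further: first quartile when negative (synergy) and third quartile when positive (antagonism).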

O=C(O)c1cn(C2CC2)c2cc(N3CCNCC3)c(F)cc2c1=O [Ciprofloxacin] + CC[C@H]1OC(=O)[C@H](C)[C@@H](O[C@H]2C[C@@](C)(OC)[C@@H](O)[C@H](C)O2)[C@H](C)[C@@H](O[C@@H]2O[C@H](C)C[C@H](N(C)C)[C@H]2O)[C@](C)(O)C[C@@H](C)C(=O)[C@H](C)[C@@H](O)[C@]1(C)O [Erythromycin]
Bliss interaction score (S. aureus Newman): 0.0474
Bliss interaction score (S. aureus DSM 20231): 0.0597
Bliss interaction score (B. subtilis 168): 0.211
Bliss interaction score (S. pneumoniae D39V): 0.065

CC1(C)S[C@@H]2[C@H](NC(=O)Cc3ccccc3)C(=O)N2[C@H]1C(=O)O [PenicillinG] + COc1cc(Cc2cnc(N)nc2N)cc(OC)c1OC [Trimethoprim]
Bliss interaction score (S. aureus Newman): -0.0822
Bliss interaction score (S. aureus DSM 20231): -0.0299
Bliss interaction score (B. subtilis 168): -0.131
Bliss interaction score (S. pneumoniae D39V): 0.101

CN(C)[C@@H]1C(O)=C(C(N)=O)C(=O)[C@@]2(O)C(O)=C3C(=O)c4c(O)ccc(Cl)c4[C@@](C)(O)[C@H]3C[C@@H]12 [Clortetracycline] + CC1(C)S[C@@H]2[C@H](NC(=O)Cc3ccccc3)C(=O)N2[C@H]1C(=O)O [PenicillinG]
Bliss interaction score (S. aureus Newman): -0.0614
Bliss interaction score (S. aureus DSM 20231): 0.0499
Bliss interaction score (B. subtilis 168): 0.123
Bliss interaction score (S. pneumoniae D39V): -0.0336

CC(=O)Oc1ccccc1C(=O)O [Acetylsalicylicacid] + CCC(C)C1C(=O)NC(=C)C(=O)NC(C(=O)NC(CSCC(C(=O)N1)NC(=O)/C(=C/C)/NC(=O)C(C(C)CC)N)C(=O)NC2C(SCC(NC(=O)CNC(=O)C3CCCN3C2=O)C(=O)NC(CCCCN)C(=O)NC4C(SCC(NC(=O)CNC(=O)C(NC(=O)C(NC(=O)C(NC(=O)CNC4=O)C)CC(C)C)CCSC)C(=O)NC(CC(=O)N)C(=O)NC(CCSC)C(=O)NC(CCCCN)C(=O)NC5C(SCC6C(=O)NC(C(=O)NC(CSC(C(C(=O)N6)NC(=O)C(NC5=O)C)C)C(=O)NC(CO)C(=O)NC(C(C)CC)C(=O)NC(CC7=CN=CN7)C(=O)NC(C(C)C)C(=O)NC(=C)C(=O)NC(CCCCN)C(=O)O)CC8=CN=CN8)C)C)C)CC(C)C [Nisin]
Bliss interaction score (S. aureus Newman; main component drawn): -0.0598
Bliss interaction score (S. aureus DSM 20231; main component drawn): -0.113
Bliss interaction score (B. subtilis 168; main component drawn): -0.0969
Bliss interaction score (S. pneumoniae D39V; main component drawn): -0.0424

CO/N=C(\C(=O)N[C@@H]1C(=O)N2C(C(=O)O)=C(COC(N)=O)CS[C@H]12)c1ccco1 [Cefuroxime] + C/C(=C\C(=O)OCCCCCCCCC(=O)O)C[C@@H]1OC[C@H](C[C@@H]2O[C@H]2[C@@H](C)[C@H](C)O)[C@@H](O)[C@H]1O [Pseudomonic acid]
Bliss interaction score (B. subtilis 168): 0.074
Bliss interaction score (S. pneumoniae D39V): 0.0629

CO/N=C(\C(=O)N[C@@H]1C(=O)N2C(C(=O)O)=C(COC(N)=O)CS[C@H]12)c1ccco1 [Cefuroxime] + O=C(O)[C@H]1/C(=C/CO)O[C@@H]2CC(=O)N21 [Clavulanic]
Bliss interaction score (B. subtilis 168): -0.0417
Bliss interaction score (S. pneumoniae D39V): -0.0363

COCCOC(=O)C1=C(C)NC(C)=C(C(=O)OC/C=C/c2ccccc2)C1c1cccc([N+](=O)[O-])c1 (stereo not drawn) [Cilnidipine] + CCC[C@@H]1C[C@@H](C(=O)N[C@@H]([C@H]2O[C@H](SC)[C@H](O)[C@@H](O)[C@H]2O)[C@H](C)Cl)N(C)C1 [Clindamycin]
Bliss interaction score (S. aureus DSM 20231): -0.221

CC(=O)Oc1ccccc1C(=O)O [Acetylsalicylicacid] + CCN(CC)C(=O)/C(C#N)=C/c1cc(O)c(O)c([N+](=O)[O-])c1 [Entacapone]
Bliss interaction score (S. aureus DSM 20231): 0.143

CN(C)[C@@H]1C(O)=C(C(N)=O)C(=O)[C@@]2(O)C(O)=C3C(=O)c4c(O)ccc(Cl)c4[C@@](C)(O)[C@H]3C[C@@H]12 [Clortetracycline] + Cc1c(C)c2c(c(C)c1O)CCC(C)(COc1ccc(CC3SC(=O)NC3=O)cc1)O2 [Troglitazone]
Bliss interaction score (S. aureus DSM 20231): -0.137

CO/N=C(\C(=O)N[C@@H]1C(=O)N2C(C(=O)O)=C(COC(N)=O)CS[C@H]12)c1ccco1 [Cefuroxime] + CCCSc1nc(N[C@@H]2C[C@H]2c2ccc(F)c(F)c2)c2nnn([C@@H]3C[C@H](OCCO)[C@@H](O)[C@H]3O)c2n1 [Ticagrelor]
Bliss interaction score (S. aureus DSM 20231): 0.137

CC(=O)Oc1ccccc1C(=O)O [Acetylsalicylicacid] + C[C@]12CC[C@@H]3c4ccc(O)cc4CC[C@H]3[C@@H]1CC[C@@H]2O [Estradiol]
Bliss interaction score (S. aureus DSM 20231): 0.162

C[C@H]1c2cccc(O)c2C(=O)C2=C(O)[C@]3(O)C(=O)C(C(N)=O)=C(O)[C@@H](N(C)C)[C@@H]3[C@@H](O)[C@@H]21 [Doxycycline] + CCCSc1nc(N[C@@H]2C[C@H]2c2ccc(F)c(F)c2)c2nnn([C@@H]3C[C@H](OCCO)[C@@H](O)[C@H]3O)c2n1 [Ticagrelor]
Bliss interaction score (S. aureus DSM 20231): -0.272

O=C(O)c1cn(C2CC2)c2cc(N3CCNCC3)c(F)cc2c1=O [Ciprofloxacin] + Cc1c(Cl)cccc1Nc1ccccc1C(=O)O [Tolfenamic]
Bliss interaction score (S. aureus DSM 20231): -0.188

Cn1c(=O)c2c(ncn2C)n(C)c1=O [Caffeine] + CCC[C@@H]1C[C@@H](C(=O)N[C@@H]([C@H]2O[C@H](SC)[C@H](O)[C@@H](O)[C@H]2O)[C@H](C)Cl)N(C)C1 [Clindamycin]
Bliss interaction score (S. aureus DSM 20231): -0.251

Reference: the supplement of paper PMC10627819
